Test results taken from PMC3072269 (Journal of medicinal chemistry, 2010).
Entries after “also recorded” stand apart in the source; their conditions may differ. Like-named read-outs stand apart in the source and are kept apart here.

What was measured:
PTEN mRNA = assay: Quantitative RT-PCR analysis of PTEN mRNA splicing in mouse tissues; assay type: in vivo, Balb/c mice; settings: for PTEN mRNA in liver, quantitative RT-PCR: i.p. 3x/wk, 7 at 25 mg/kg, 1 at 40 mg/kg, PNAs 10 or 40 mg/kg
PTEN RNA = assay: Quantitative RT-PCR of PTEN RNA splicing in BCL1 cells; assay type: cell-based, murine; settings: data not shown
[1] = test system: CD40 cell surface protein expression; settings: read-out: IC50, CD40 cell surface protein expression; flow cytometry, FITC labeled antiCD40 antibody; cited from earlier work
PTEN protein = assay: Western blot analysis of PTEN protein in mouse tissues; assay type: in vivo, Balb/c mice; settings: 7 at 25 mg/kg, i.p. 3x/wk, 2 wks
PTEN = settings: mice, determined in a previous study, cited from earlier work
[2] = amphipathic peptide study, dosing as in Table 6

In the case of “D-(KKLLKAALKLAKKG)-TKCTCAGCACATCTACA-Lys [Compound 14]”, the “PTEN splicing activity in adipose tissue, quantitative RT-PCR” value (PTEN mRNA; [2]) is reported as “showed activity at the low dose”, the “PTEN splicing activity in kidney, quantitative RT-PCR” value (PTEN mRNA; [2]) is reported as “comparable to the octa(L-lysine) conjugate 9, even when administered at an approximately 4.5-fold lower dose” and the “histopathological examination of the kidneys, low dose group” value (Tolerability in mice; 8.25 mg/kg i.p., 3x/wk, 2 wks) is reported as “nephrotoxicity with proximal tubule necrosis and regeneration”. For the same substance, the “liver morphology, high dose group” value (Tolerability in mice; 33 mg/kg i.p.) was “appeared normal”, the “spleen size, high dose group” value (Tolerability in mice; 33 mg/kg i.p.) was “drastically reduced spleen sizes” and the “histopathological examination of the kidneys, high dose group” value (Tolerability in mice; 33 mg/kg i.p., single administration) was “profound proximal tubule necrosis and proteinacous accumulation in Henle’s loop and collecting tubules”. The “body weight, high dose group” value (Tolerability in mice; 33 mg/kg i.p., arm terminated prematurely) was “rapid weight loss after administration of the first dose, indicative of acute toxicity”.
In the case of “(Lys)2-TKCTCAGCACATCTACA-Lys [Compound 10]”, the “PTEN mRNA splicing in white adipose tissue, quantitative RT-PCR” value (PTEN mRNA; 10 or 40 mg/kg i.p., 3x/wk, 2 wks) is reported as “marginal with the alternatively spliced isoform being upregulated but the full length transcript being unaltered; also recorded: inactive at both doses”.
With CTCAGCACATCTACA-Lys [Compound 3] the “alteration of splicing of PTEN RNA” value (PTEN RNA) was “full length transcript was reduced and the alternatively spliced product was enhanced”.
In the case of “1: uniform 2′-O-MOE phosphorothioate 20-mer CTCAGCACATCTACAAGAAA, PTEN intron 3:exon 4 (all 2'-MOE, all phosphorothioate, methylation of C not given here) [Compound 1, reference compound]”, the “PTEN mRNA in liver, quantitative RT-PCR” value (PTEN mRNA; 2 wks) is reported as “modest downregulation of full length transcript with upregulation of the alternatively spliced product”.
In the case of CACAGATGACATTAG-Lys [Compound 8], the IC50 [1] is given as 0.9 µM.
In the case of “7: antiPTEN phosphorothioate oligonucleotide with 2′-O-MOE wings and a 2′-deoxyribonucleotide gap, CTGCTAGCCTCTGGATTTGA, exon 9 [Compound 7]”, the “PTEN protein in adipose tissue, western blot” value (PTEN protein; 9 at high dose (40 mg/kg)) is reported as “significant and comparable downregulation of PTEN protein”, the “PTEN protein expression in liver, western blot” value (PTEN protein; PNAs 10 or 40 mg/kg) is reported as “significant inhibition of PTEN protein expression” and the “PTEN mRNA in liver, quantitative RT-PCR” value (PTEN mRNA; 2 wks) is reported as “downregulation of total PTEN message (both isoforms)”. For the same substance, the EC50 (PTEN; read-out: Adipose EC50) was 0.7 to 1.4 µM and the EC50 (PTEN; read-out: Liver EC50) was 14 µM.
